The source of these data is patent US20060194217A1, “Method of genotyping and phenotyping hepatitis B viruses resistant to antiviral molecules” (priority 2005, published 2006).

Assay [1] has as its system HBV quasi-species of patient sample N° 17. Description: High throughput phenotyping assay: patient sample N° 17. The assay is classed as cell-based, hepatitis B virus. The conditions noted are these: for pIC50: Hepatitis B virus, 96 h, sample N° 17, M24 3TC, INNO LiPA L180M ± M204I, 4 days treatment; for Increase in resistance: sample N° 17, IC50 compared with referent virus. The method, then:
(§1) The DNA from 1 ml of serum was extracted using the QIAamp Ultrasens Virus kit (Qiagen), and was taken up in 60 μl of water.
(§2) An amplification of the whole genomes by the method of the invention including the Nar I site was carried out and the amplicons obtained were purified by means of a silica column (Qiagen kit, Qiaquick purification kit).
(§3) The amplicons were then digested with the Nar I enzyme and purified by the same method as above.
(§4) These amplicons were transfected, in a culture format comprising a 25 cm^2 flask seeded the day before at a density of 5.2×10^4 cells/cm^2, with 200 to 400 ng of amplicon/cm^2.
(§5) After 60 hours, the cells were trypsinized and then treated with DNAse. After trypsinization, the cells were taken up in culture medium supplemented 50/50 with the two-times concentrated DNAse buffer (50 mM Tris, 1 mM CaCl2, 5 mM MgCl2, pH 8, 400 μg/ml of DNAse I) containing DNAse I, and incubated for 45 min at 37°. After pelleting, the cells were taken up in culture medium and distributed into 96-well culture plates coated (BioCoat) with collagen at a density of 6×10^4 cells/cm^2 in a volume corresponding to half the final volume used for the treatment with the drugs to be tested. This volume was completed with the 2-times concentration range of the drugs studied (Lamivudine and Adefovir)
(§6) The ranges used were from 100 to 0.01 μM for Lamivudine and from 100 to 6.25 μM for Adefovir. These cultures were treated with these dilutions for 4 days.
(§7) At the end of these 4 days of treatment, the viral DNA was extracted.
(§8) This step was carried out after washing the cells with PBS and adding the extraction buffer, i.e. 50 μl per 30 mm^2 (96-well format) (25 mM Tris, 0.5 mM CaCl2, 2.5 mM MgCl2, pH 8, 0.4 mg/ml DNAse, 0.4 mg/ml RNAse, 1% NP40). The lysis lasted one hour at 37° C. with agitation on a Heidolph Titramax 1000 plate mixer at a rotation rate of about 1050 rpm.
(§9) After this step of lysis and of digestion with DNAse and RNAse, the viral DNA produced during the culturing remains protected in the viral capsids. […]
(§10) This denaturation step was then stopped by adding a neutralizing buffer, 15 μl of 1M Tris at pH 7, and the solution thus obtained was subjected to a dilution before quantification by real time PCR. […]
(§11) The viral DNA extracted was then quantified by means of real time PCR quantification method.
(§12) This HBV production quantification step can be directly carried out after the preceding step, without any need to purify or concentrate the cell lysates to be assayed. […] (quantification step), and a final extension of one minute at 63° C. […]
(§13) For each plate assayed, a standard curve of 10^6 to 10^2 HBV copies/reaction was quantified in parallel. […]

Assay [2] relates to HBV quasi-species of patient sample N° 21. Description: High throughput phenotyping assay: patient sample N° 21. The conditions noted are these: for pIC50: Hepatitis B virus, 96 h, sample N° 21, D0 3TC, naïve, INNO LiPA wt, 4 days treatment; for Increase in resistance: sample N° 21, IC50 compared with referent virus. The assay is classed as cell-based, hepatitis B virus. The method, then:
as §1, §2, §3, §4, §5, §6, §7, §8, §9, §10, §11, §12, §13

Assay [3] concerns HBV quasi-species of patient sample N° 7. As to the kind of experiment: High throughput phenotyping assay: patient sample N° 7. The class given is cell-based, hepatitis B virus. The conditions noted are these: for pIC50: Hepatitis B virus, 96 h, sample N° 7, M18 3TC, INNO LiPA L80V M204I, 4 days treatment; for Increase in resistance: sample N° 7, IC50 compared with referent virus. The procedure:
as §1, §2, §3, §4, §5, §6, §7, §8, §9, §10, §11, §12, §13

Assay [4] deals with HBV quasi-species of patient sample N° 5. Description: High throughput phenotyping assay: patient sample N° 5. The assay is classed as cell-based, hepatitis B virus. The conditions noted are these: for pIC50: Hepatitis B virus, 96 h, sample N° 5, D0 3TC, naïve, INNO LiPA wt, 4 days treatment; for Increase in resistance: sample N° 5, IC50 compared with referent virus. The procedure: as §1, §2, §3, §4, §5, §6, §7, §8, §9, §10, §11, §12, §13

The test system of assay [5] is HBV quasi-species of patient sample N° 3. As to the kind of experiment: High throughput phenotyping assay: patient sample N° 3. The class given is cell-based, hepatitis B virus. The settings on record: for pIC50: Hepatitis B virus, 96 h, sample N° 3, D0 3TC, naïve, INNO LiPA wt, 4 days treatment; for Increase in resistance: sample N° 3, IC50 compared with referent virus. The method, then:
as §1, §2, §3, §4, §5, §6, §7, §8, §9, §10, §11, §12, §13

For assay [6], the system named is reference HBV, genotype D, ayw serotype, wild-type phenotype. Description: High throughput phenotyping assay, HBV genomic amplicon transfected, viral DNA by real time PCR: referent virus. The class given is cell-based. The conditions noted are these: Hepatitis B virus, 96 h, Referent virus (genotype D, ayw, without known mutation), 4 days treatment. The method, then:
In addition to the 6 samples analysed, a control was included. This control is a genome of the reference HBV, genotype D, having an ayw serotype and a wild-type phenotype for all the drugs studied. This genome was amplified by the same technique as the samples analysed using a plasmid.
as §2, §3, §4
After 60 hours, the cells were trypsinized and then treated with DNAse. […]
as §10, §11, §12

In assay [7] the test system is HBV quasi-species of patient sample N° 19. As to the kind of experiment: High throughput phenotyping assay: patient sample N° 19. The settings on record: for pIC50: Hepatitis B virus, 96 h, sample N° 19, M24 3TC M3 PMEA, INNO LiPA L180M A181V, 4 days treatment; for Increase in resistance: IC50 compared with referent virus. The class given is cell-based, hepatitis B virus. The procedure:
as §1, §2, §3, §4, §5, §6, §7, §8
After this step of lysis and of digestion with DNAse and RNAse, the viral DNA produced during the culturing remains protected in the viral capsids. This DNA was then extracted by denaturation of the viral capsids by means of alkalinization of the extraction buffer by addition of NaOH, i.e. 15 μl of a 0.4M solution per 50 μl of extraction buffer. This denaturation was carried out at 37° C. for 30 min under the same agitation conditions as during the treatment with DNAse, i.e. on a Heidolph Titramax 1000 plate mixer at a rotation rate of about 1050 rpm.
This denaturation step was then stopped by adding a neutralizing buffer, 15 μl of 1M Tris at pH 7, and the solution thus obtained was subjected to a dilution before quantification by real time PCR. The final dilution is ⅕ relative to the initial volume of extraction buffer, i.e. an addition of 170 μl of water in a 96-well format.
as §11
This HBV production quantification step can be directly carried out after the preceding step, without any need to purify or concentrate the cell lysates to be assayed. The real time PCR can be carried out in the same format as the culture format, i.e. a 96-well format on the Biorad MyiQ device, using the real time kit and the consumables suitable for this device, i.e. the iQ™ Sybr® Green Supermix two-times concentrated PCR mix. […] (quantification step), and a final extension of one minute at 63° C. […]
as §13

Another assay relates to HBV. The settings on record: cited from earlier work.

As a reminder, the pIC50 is the IC50 on a negative log10 scale, so that one unit is a factor of ten.

pIC50: −log10 of the molar value.

As to `Nc1ncnc2c1ncn2CCOCP(=O)(O)O` [Adefovir], the negative-log IC50 (pIC50) in assay [1] was 4.85; in assay [2] it was 4.84; in assay [3], 4.87; in assay [4], 5.10; in assay [5], 5.05; in assay [6] it was 5.10. For the same compound, the pIC50 in assay [7] is 4.28. Also, the Increase in resistance in assay [1] is reported as 1.75; in assay [2], 1.8; in assay [3], 1.7; in assay [4], 1; in assay [5] it was 1.1; in assay [7] (sample N° 19), 6.5. Also, the in vitro phenotype result in assay [7] (sample N° 19) is recorded as “doubly resistant”.

Consider alpha-interferon, for which the “chronic carriers that it is possible to treat” value in the assay with HBV is “approximately 40%”.

As to `Nc1ccn([C@@H]2CS[C@H](CO)O2)c(=O)n1` [Lamivudine], the pIC50 in assay [1] is under 4.00; in assay [2], 6.85; in assay [3], under 4.00; in assay [4] it was 6.70; in assay [5], 6.15; in assay [6], 7.00. The same compound gave a negative-log IC50 (pIC50) in assay [7] of 4.40. Further, the Increase in resistance in assay [1] is over 1000; in assay [2], 1.4; in assay [3], over 1000; in assay [4], 2; in assay [5], 7; in assay [7] (sample N° 19), 400.
